Measured values as given in patent publication US20120039796A1, “Novel method for creating, suspending and stabilizing electronically modified oxygen derivatives, along with creating, suspending and stabilizing electronically modified reaction intermediates, in a bio compatible fluorocarbon suspension, for the purpose of inducing a cascading immune response in …” (priority 2010, published 2012).

Legend:
TrxR = molecular target: T1, TrxR (Homo sapiens, UniProt Q16881); details: cited from earlier work
T1 sequence (Q16881 151-649 limits assumed): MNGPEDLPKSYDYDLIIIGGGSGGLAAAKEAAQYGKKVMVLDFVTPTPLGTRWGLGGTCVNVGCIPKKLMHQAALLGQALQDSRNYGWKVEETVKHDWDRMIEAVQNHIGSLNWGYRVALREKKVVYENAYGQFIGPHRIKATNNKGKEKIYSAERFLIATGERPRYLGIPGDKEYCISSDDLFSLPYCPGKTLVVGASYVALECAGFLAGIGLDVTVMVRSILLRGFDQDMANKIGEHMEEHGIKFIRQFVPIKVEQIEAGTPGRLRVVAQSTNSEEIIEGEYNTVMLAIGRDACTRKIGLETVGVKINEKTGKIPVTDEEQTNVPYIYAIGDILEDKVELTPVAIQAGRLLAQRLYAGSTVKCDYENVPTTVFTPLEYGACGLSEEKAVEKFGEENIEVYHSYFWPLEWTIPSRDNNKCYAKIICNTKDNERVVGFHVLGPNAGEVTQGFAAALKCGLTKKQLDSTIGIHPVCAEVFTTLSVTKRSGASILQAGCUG

[1] = cited from earlier work
[2] = Decay of ozone bubbled into distilled water, absorbance at 260 nm; type: physicochemical
Method: 15 ml of distilled h20 was used to bubble a mixture of ozone/oxygen through the sample for 30 min in a glass bubbler using a custom made proton exchange membrane ozone machine, which then 0.01 ml sample was quickly placed in a hatch DR 4000 u spectrometer, the machine was zeroed before the sample was placed in, also the absorbance wave length was set for 260 nm, the detection absorbance band of ozone, initial results at the peak were 0.590 ABS, but quickly decayed and after 20 min the ozone present in the sample was completely gone. This is the main problem with modem ozone therapy, the sample disappears with a predictable results extremely fast decay rate with in 20 min, and there is not enough of a concentration left to make a therapeutic difference, especially for burns, ulcerations, tendon injections.

[3] = Stability of ozone in Fluorodecalin stored frozen at -50 C for 30 days, absorbance at 260 nm; type: physicochemical
Method: (§1) After the ten hours expired, the spectrometer was quickly restarted for another 10 hours, were after the first 4 hours and 20 min in the second run is where the sample reached its half life. Once the 20 hours expired, the ABS reading was 0.082 were it took another 10 hours for Ozone too fully decay.
After 30 days, the sample that was placed in the freezer was removed out of the freezer, with in 5 min the sample was completely thawed, which then a 0.01 ml sample was quickly placed it into the spectrometer were 3 consecutive single non timed scans were taken, with an average highest ABS reading of 0.688.

[4] = Stability of ozone in 95% pure Fluorodecalin (C10F18), non-frozen, continuous absorbance at 260 nm; type: physicochemical
Method: as §1
In the first PFC experiment, the ozone was stable within the PFC matrix for over 5 hours without any appreciable decay, after 5 hours the sample started to deviate and when the 10 hours mark was reached, the reading was around 0.600 ABS, in the last 5 hours of the run is when the sample lost 0.09 ABS, this was excellent result. In the second part of the experiment is where the sample decay accelerated. […] It should be noted the sample of PFC was 95% pure, and was the only purity I could attain at the time for the experiment and due to time constraints another sample could not have been attained. It should also be noted when the sample was finally removed from the machine for clean up, about 60 hours later after the initial experiment, half the sample evaporated. […] The utility of this patent is self evident; this invention solves the problems that plagued modern ozone therapy for the last 100 years.

[5] = cited from earlier work; remark: listed apart in the source
cancer cell cultures = details: cited from earlier work

## O=C1c2c(O)cc(O)cc2O[C@H](c2ccc(O)c(O)c2)[C@H]1O [taxifolin]
TrxR
  inhibitory effect on TrxR: NADPH-, concentration-, and time-dependent inhibitory effect

## catechin
TrxR
  inhibitory effect on TrxR: NADPH-, concentration-, and time-dependent inhibitory effect

## O=c1c(O)c(-c2cc(O)c(O)c(O)c2)oc2cc(O)cc(O)c12 [myricetin]
TrxR
  inhibitory effect on TrxR: NADPH-, concentration-, and time-dependent inhibitory effect

## O=c1c(O)c(-c2ccc(O)c(O)c2)oc2cc(O)cc(O)c12 [quercetin]
TrxR
  inhibitory effect on TrxR: NADPH-, concentration-, and time-dependent inhibitory effect

## O=O [oxygen]
[1]; PFC liquids for biomedical applications, 37° C., 1 atm
  solubility in PFC liquids: 40-50 vol. %
[1]; water, 37° C., 1 atm
  solubility in water: 2.5 vol. %

## O=[O+][O-] [ozone]
[2]; distilled h20
  time after which ozone in the sample was completely gone: 20 min
[2]; ozone/oxygen bubbled 30 min through distilled h20, 260 nm
  initial absorbance at the peak: 0.590 ABS
[3]; 30 days at -50 C
  stability in the frozen state: fully stabilized
[3]; 30 days in freezer at -50 C, thawed, 3 scans
  average highest ABS reading after storage: 0.688 ABS
[4]; 20/80 ozone/oxygen bubbled 20 min in Fluorodecalin, 260 nm
  initial absorbance at the highest peak: around 0.690 ABS
[4]; Fluorodecalin, non-frozen
  absorbance at the 10 hours mark: around 0.600 ABS
  absorbance once 20 hours expired: 0.082 ABS
  further time for ozone to fully decay after the 20 hours: 10 h
[4]; Fluorodecalin, non-frozen, first 10 hour run
  deviation in ABS over the first 10 hours: 0.09 ABS
[1]; at stp
  amount dissolved in perfluorodecalin relative to oxygen: 13 times
[5]; air, -50 degrees C
  time stable in air at -50 degrees C: about 3 months
[5]; air
  half-life in air: 12 h
[5]; saline
  half-life in saline: less than 20 min
[5]; watery solution
  half-life in water: about 20 minutes

## O=CC[C@@H](O)[C@H](O)[C@H](O)CO [Example 2-DG, 2-Deoxy-D-glucose]
Cancer cell cultures; by glucose deprivation
  apoptosis: induces apoptosis
Cancer cell cultures
  effect on cell growth: hampers cell growth

## FC1(F)C(F)(F)C(F)(F)C2(F)C(F)(F)C(F)(F)C(F)(F)C(F)(F)C2(F)C1(F)F (centres unmarked) [perfluorodecalin]
[1]; 100 ml perfluorodecalin at 25° C., oxygen at STP
  volume of oxygen dissolved by 100 ml: 49 mL
